Laboratory results from patent US20260022142A1, “MACROCYCLIC IMMUNOMODULATORS” (Bristol-Myers Squibb Company, priority 2022, published 2026).
Bridge positions count the residues as written; N and C are the ends. Square brackets hold non-standard residues; d marks the D form. Peptide text beside a SMILES is read from it. * marks the point of attachment. Phe(4-COOH) = N[C@@H](Cc1ccc(C(=O)O)cc1)C(=O)O; Bip = N[C@@H](Cc1ccc(-c2ccccc2)cc1)C(=O)O; Phe(3-Me) = Cc1cccc(C[C@H](N)C(=O)O)c1; Cha = N[C@@H](CC1CCCCC1)C(=O)O; Carboxymethyl = O=C(O)C*; Orn = NCCC[C@H](N)C(=O)O; Aun = NCCCCCCCCCCC(=O)O; Dab = NCC[C@H](N)C(=O)O; Dap = NC[C@H](N)C(=O)O; AEEA = NCCOCCOCC(=O)O

Biological target: T1, PD-1/PD-L1 interaction (PE-labeled human PD-L1-Ig binding to Jurkat cell line over-expressing human PD-1) (Homo sapiens, UniProt Q15116)
T1 construct: expressed in transfected cells; host or cells: Jurkat
Assay: Jurkat-PD-1 Cell Binding High-Content Screening Assay (CBA)
Type: cell-based
Settings: Jurkat cell line over-expressing human PD-1; PE-labeled PD-L1-Ig 20 nM final; read-out: Jurkat hPD1-PDL1 IC50
How it was run: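 First, compound is added to PD-1-expressing Jurkat cells in serum-containing DMEM and left 2 h at 37° C. Next, PE-conjugated PD-L1-Ig is introduced at 20 nM final concentration for 1 hour. Finally, cells are fixed in 4% paraformaldehyde with Hoechst 33342, washed and imaged.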

T1 sequence (Q15116 25-288): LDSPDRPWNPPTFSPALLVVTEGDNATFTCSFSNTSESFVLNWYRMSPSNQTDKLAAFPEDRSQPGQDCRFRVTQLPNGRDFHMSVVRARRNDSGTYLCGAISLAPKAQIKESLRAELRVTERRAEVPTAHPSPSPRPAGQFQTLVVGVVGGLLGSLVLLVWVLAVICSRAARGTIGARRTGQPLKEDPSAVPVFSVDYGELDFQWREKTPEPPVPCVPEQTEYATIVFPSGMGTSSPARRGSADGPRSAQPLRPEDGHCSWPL

Compound | IC50 [nM]
Cc1cccc(C[C@@H]2NC(=O)[C@H](CC(=O)O)NC(=O)[C@H](Cc3ccc(OCC(=O)O)cc3)NC(=O)[C@H](CN)NC(=O)CSC[C@@H](C(=O)NCCOCCOCC(=O)N[C@@H](CCN)C(=O)NCCCCCCCCCCC(=O)O)NC(=O)[C@H](CN)NC(=O)[C@H](C(C)C)NC(=O)[C@H](CC3CCCCC3)NC(=O)[C@H](CCN)NC(=O)[C@@H](CC(C)C)NC(=O)[C@H](CCCN)NC(=O)[C@H](C(C)C)NC(=O)[C@H](Cc3ccc(-c4ccccc4)cc3)NC(=O)[C@H](C(C)C)NC2=O)c1 [Compound 2542] ({CH2CO}-[Dap]Y(Carboxymethyl)D[Phe(3-Me)]V[Bip]V[Orn][dL][Dab][Cha]V[Dap]C[AEEA][Dab][Aun]-OH; thioether N-14) | 4.9
Cc1cccc(C[C@@H]2NC(=O)[C@H](CC(=O)O)NC(=O)[C@H](Cc3ccc(OCC(=O)O)cc3)NC(=O)[C@H](CN)NC(=O)CSC[C@@H](C(=O)NCCOCCOCC(=O)N[C@@H](CCN)C(=O)NCCCCCCCCCCC(=O)O)NC(=O)[C@H](CCCN)NC(=O)[C@H](C(C)C)NC(=O)[C@H](CC3CCCCC3)NC(=O)[C@H](CCN)NC(=O)[C@@H](CC(C)C)NC(=O)[C@H](CCCN)NC(=O)[C@H](C(C)C)NC(=O)[C@H](Cc3ccc(-c4ccccc4)cc3)NC(=O)[C@H](C(C)C)NC2=O)c1 [Compound 2543] ({CH2CO}-[Dap]Y(Carboxymethyl)D[Phe(3-Me)]V[Bip]V[Orn][dL][Dab][Cha]V[Orn]C[AEEA][Dab][Aun]-OH; thioether N-14) | 9.5
Cc1cccc(C[C@@H]2NC(=O)[C@H](CC(=O)O)NC(=O)[C@H](Cc3ccc(OCC(=O)O)cc3)NC(=O)[C@H](CN)NC(=O)CSC[C@@H](C(=O)NCCOCCOCC(=O)N[C@@H](CCN)C(=O)NCCCCCCCCCCC(=O)O)NC(=O)[C@H](CCCNC(=N)N)NC(=O)[C@H](C(C)C)NC(=O)[C@H](CC3CCCCC3)NC(=O)[C@H](CCN)NC(=O)[C@@H](CC(C)C)NC(=O)[C@H](CCCN)NC(=O)[C@H](C(C)C)NC(=O)[C@H](Cc3ccc(-c4ccccc4)cc3)NC(=O)[C@H](C(C)C)NC2=O)c1 [Compound 2544] ({CH2CO}-[Dap]Y(Carboxymethyl)D[Phe(3-Me)]V[Bip]V[Orn][dL][Dab][Cha]VRC[AEEA][Dab][Aun]-OH; thioether N-14) | 10.7
CC(C)C[C@H]1NC(=O)[C@H](CCCN)NC(=O)[C@H](C(C)C)NC(=O)[C@H](Cc2ccc(-c3ccccc3)cc2)NC(=O)[C@H](C(C)C)NC(=O)[C@H](Cc2c[nH]c3ccccc23)NC(=O)[C@H](CC(=O)O)NC(=O)[C@H](Cc2ccc(OCC(=O)O)cc2)NC(=O)[C@H](Cc2ccc(OCC(=O)O)cc2)NC(=O)CSC[C@@H](C(=O)NCCOCCOCC(=O)N[C@@H](CCN)C(=O)NCCCCCCCCCCC(=O)O)NC(=O)[C@H](CCCN)NC(=O)[C@H](C(C)C)NC(=O)[C@H](CC2CCCCC2)NC(=O)[C@H](CCN)NC1=O [Compound 2545] ({CH2CO}-Y(Carboxymethyl)Y(Carboxymethyl)DWV[Bip]V[Orn][dL][Dab][Cha]V[Orn]C[AEEA][Dab][Aun]-OH; thioether N-14) | 7.4
CC(C)C[C@H]1NC(=O)[C@H](CCCN)NC(=O)[C@H](C(C)C)NC(=O)[C@H](Cc2ccc(-c3ccccc3)cc2)NC(=O)[C@H](C(C)C)NC(=O)[C@H](Cc2c[nH]c3ccccc23)NC(=O)[C@H](CC(=O)O)NC(=O)[C@H](Cc2ccc(OCC(=O)O)cc2)NC(=O)[C@H](Cc2ccc(OCC(=O)O)cc2)NC(=O)CSC[C@@H](C(=O)NCCOCCOCC(=O)N[C@@H](CCN)C(=O)NCCCCCCCCCCC(=O)O)NC(=O)[C@H](CN)NC(=O)[C@H](C(C)C)NC(=O)[C@H](CC2CCCCC2)NC(=O)[C@H](CCN)NC1=O [Compound 2546] ({CH2CO}-Y(Carboxymethyl)Y(Carboxymethyl)DWV[Bip]V[Orn][dL][Dab][Cha]V[Dap]C[AEEA][Dab][Aun]-OH; thioether N-14) | 13.3
CC(C)C[C@H]1NC(=O)[C@H](CCCN)NC(=O)[C@H](C(C)C)NC(=O)[C@H](Cc2ccc(-c3ccccc3)cc2)NC(=O)[C@H](C(C)C)NC(=O)[C@H](Cc2c[nH]c3ccccc23)NC(=O)[C@H](CC(=O)O)NC(=O)[C@H](Cc2ccc(C(=O)O)cc2)NC(=O)[C@H](Cc2ccc(OCC(=O)O)cc2)NC(=O)CSC[C@@H](C(=O)N[C@@H](CCN)C(=O)NCCOCCOCC(=O)NCCCCCCCCCCC(=O)O)NC(=O)[C@H](CCCCN)NC(=O)[C@H](C(C)C)NC(=O)[C@H](CC2CCCCC2)NC(=O)[C@H](CCN)NC1=O [Compound 2547] ({CH2CO}-Y(Carboxymethyl)[Phe(4-COOH)]DWV[Bip]V[Orn][dL][Dab][Cha]VKC[Dab][AEEA][Aun]-OH; thioether N-14) | 31.9
CC(C)C[C@H]1NC(=O)[C@H](CCCN)NC(=O)[C@H](C(C)C)NC(=O)[C@H](Cc2ccc(-c3ccccc3)cc2)NC(=O)[C@H](C(C)C)NC(=O)[C@H](Cc2c[nH]c3ccccc23)NC(=O)[C@H](CC(=O)O)NC(=O)[C@H](Cc2ccc(OCC(=O)O)cc2)NC(=O)[C@H](Cc2ccc(OCC(=O)O)cc2)NC(=O)CSC[C@@H](C(=O)N[C@@H](CCN)C(=O)NCCOCCOCC(=O)NCCCCCCCCCCC(=O)O)NC(=O)[C@H](CCCNC(=N)N)NC(=O)[C@H](C(C)C)NC(=O)[C@H](CC2CCCCC2)NC(=O)[C@H](CCN)NC1=O [Compound 2548] ({CH2CO}-Y(Carboxymethyl)Y(Carboxymethyl)DWV[Bip]V[Orn][dL][Dab][Cha]VRC[Dab][AEEA][Aun]-OH; thioether N-14) | 11.6
CC(C)C[C@H]1NC(=O)[C@H](CCCN)NC(=O)[C@H](C(C)C)NC(=O)[C@H](Cc2ccc(-c3ccccc3)cc2)NC(=O)[C@H](C(C)C)NC(=O)[C@H](Cc2c[nH]c3ccccc23)NC(=O)[C@H](CC(=O)O)NC(=O)[C@H](Cc2ccc(OCC(=O)O)cc2)NC(=O)[C@H](CN)NC(=O)CSC[C@@H](C(=O)N[C@@H](CCN)C(=O)NCCOCCOCC(=O)NCCCCCCCCCCC(=O)O)NC(=O)[C@H](CCCCN)NC(=O)[C@H](C(C)C)NC(=O)[C@H](CC2CCCCC2)NC(=O)[C@H](CCN)NC1=O [Compound 2549] ({CH2CO}-[Dap]Y(Carboxymethyl)DWV[Bip]V[Orn][dL][Dab][Cha]VKC[Dab][AEEA][Aun]-OH; thioether N-14) | 9.4
Cc1cccc(C[C@@H]2NC(=O)[C@H](CC(=O)O)NC(=O)[C@H](Cc3ccc(OCC(=O)O)cc3)NC(=O)[C@H](CN)NC(=O)CSC[C@@H](C(=O)N[C@@H](CCN)C(=O)NCCOCCOCC(=O)NCCCCCCCCCCC(=O)O)NC(=O)[C@H](CN)NC(=O)[C@H](C(C)C)NC(=O)[C@H](CC3CCCCC3)NC(=O)[C@H](CCN)NC(=O)[C@@H](CC(C)C)NC(=O)[C@H](CCCN)NC(=O)[C@H](C(C)C)NC(=O)[C@H](Cc3ccc(-c4ccccc4)cc3)NC(=O)[C@H](C(C)C)NC2=O)c1 [Compound 2550] ({CH2CO}-[Dap]Y(Carboxymethyl)D[Phe(3-Me)]V[Bip]V[Orn][dL][Dab][Cha]V[Dap]C[Dab][AEEA][Aun]-OH; thioether N-14) | 8
Cc1cccc(C[C@@H]2NC(=O)[C@H](CC(=O)O)NC(=O)[C@H](Cc3ccc(OCC(=O)O)cc3)NC(=O)[C@H](CN)NC(=O)CSC[C@@H](C(=O)N[C@@H](CCN)C(=O)NCCOCCOCC(=O)NCCCCCCCCCCC(=O)O)NC(=O)[C@H](CCCN)NC(=O)[C@H](C(C)C)NC(=O)[C@H](CC3CCCCC3)NC(=O)[C@H](CCN)NC(=O)[C@@H](CC(C)C)NC(=O)[C@H](CCCN)NC(=O)[C@H](C(C)C)NC(=O)[C@H](Cc3ccc(-c4ccccc4)cc3)NC(=O)[C@H](C(C)C)NC2=O)c1 [Compound 2551] ({CH2CO}-[Dap]Y(Carboxymethyl)D[Phe(3-Me)]V[Bip]V[Orn][dL][Dab][Cha]V[Orn]C[Dab][AEEA][Aun]-OH; thioether N-14) | 11.2
Cc1cccc(C[C@@H]2NC(=O)[C@H](CC(=O)O)NC(=O)[C@H](Cc3ccc(OCC(=O)O)cc3)NC(=O)[C@H](CN)NC(=O)CSC[C@@H](C(=O)N[C@@H](CCN)C(=O)NCCOCCOCC(=O)NCCCCCCCCCCC(=O)O)NC(=O)[C@H](CCCNC(=N)N)NC(=O)[C@H](C(C)C)NC(=O)[C@H](CC3CCCCC3)NC(=O)[C@H](CCN)NC(=O)[C@@H](CC(C)C)NC(=O)[C@H](CCCN)NC(=O)[C@H](C(C)C)NC(=O)[C@H](Cc3ccc(-c4ccccc4)cc3)NC(=O)[C@H](C(C)C)NC2=O)c1 [Compound 2552] ({CH2CO}-[Dap]Y(Carboxymethyl)D[Phe(3-Me)]V[Bip]V[Orn][dL][Dab][Cha]VRC[Dab][AEEA][Aun]-OH; thioether N-14) | 9.9
CC(C)C[C@H]1NC(=O)[C@H](CCCN)NC(=O)[C@H](C(C)C)NC(=O)[C@H](Cc2ccc(-c3ccccc3)cc2)NC(=O)[C@H](C(C)C)NC(=O)[C@H](Cc2c[nH]c3ccccc23)NC(=O)[C@H](CC(=O)O)NC(=O)[C@H](Cc2ccc(OCC(=O)O)cc2)NC(=O)[C@H](Cc2ccc(OCC(=O)O)cc2)NC(=O)CSC[C@@H](C(=O)N[C@@H](CCN)C(=O)NCCOCCOCC(=O)NCCCCCCCCCCC(=O)O)NC(=O)[C@H](CCCN)NC(=O)[C@H](C(C)C)NC(=O)[C@H](CC2CCCCC2)NC(=O)[C@H](CCN)NC1=O [Compound 2553] ({CH2CO}-Y(Carboxymethyl)Y(Carboxymethyl)DWV[Bip]V[Orn][dL][Dab][Cha]V[Orn]C[Dab][AEEA][Aun]-OH; thioether N-14) | 11.3
CC(C)C[C@H]1NC(=O)[C@H](CCCN)NC(=O)[C@H](C(C)C)NC(=O)[C@H](Cc2ccc(-c3ccccc3)cc2)NC(=O)[C@H](C(C)C)NC(=O)[C@H](Cc2c[nH]c3ccccc23)NC(=O)[C@H](CC(=O)O)NC(=O)[C@H](Cc2ccc(OCC(=O)O)cc2)NC(=O)[C@H](Cc2ccc(OCC(=O)O)cc2)NC(=O)CSC[C@@H](C(=O)N[C@@H](CCN)C(=O)NCCOCCOCC(=O)NCCCCCCCCCCC(=O)O)NC(=O)[C@H](CN)NC(=O)[C@H](C(C)C)NC(=O)[C@H](CC2CCCCC2)NC(=O)[C@H](CCN)NC1=O [Compound 2554] ({CH2CO}-Y(Carboxymethyl)Y(Carboxymethyl)DWV[Bip]V[Orn][dL][Dab][Cha]V[Dap]C[Dab][AEEA][Aun]-OH; thioether N-14) | 11.5
